Holding throughout (assay): NCI tumour cell line growth inhibition, 48 h
The subject of assay [1] is DU-145 prostate.
Assay [2] relates to KM12 colon.
Assay [3] has as its system LOX IMVI melanoma.
In assay [4] the test system is MCF7 breast.
Assay [5] deals with NCI/ADR-RES ovarian.
The subject of assay [6] is OVCAR-3 ovarian.
Assay [7] relates to OVCAR-8 ovarian.
Assay [8] has as its system SW-620 colon.
Assay [9] deals with TK-10 renal.
In assay [10] the test system is UO-31 renal.

Where “and” joins values, the source holds several entries; their conditions need not be identical. Identical values can stand only once.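 Five compound concentrations were applied to cells in 96-well plates for 48 hours; endpoints were derived by simple linear interpolation of the resulting dose-response curve. GI50 = concentration required for 50% inhibition of growth. TGI is the concentration that stops growth completely.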

For `CCOC(=O)C(/C=N/C(N)=S)=C(/O)c1ccccc1`, the TGI in assay [1], in assay [2], in assay [3], in [4], in assay [5] and in [6] was over 100 µM each time. The TGI in assay [7], in assay [8], in [9] and in assay [10] was over 100 µM each time.
As to `COC(=O)/C=C/c1cc(OC)c2c(c1)C(C(=O)OC)C(c1ccc(O)c(OC)c1)O2` (configuration not stated), the TGI in assay [1] was > 100 µM and 35.7 µM; in [2], > 88.2 µM and 20.9 µM and 15.7 µM; in [3], > 100 µM and 22.3 µM and 25.3 µM; in assay [4] it was > 100 µM and > 69.5 µM and 42.9 µM; in assay [5], > 33.9 µM and 26.6 µM and 12.9 µM; in [6], > 27 µM and > 25.6 µM and 19.8 µM. Further, the TGI was > 100 µM and > 72.2 µM and 21.6 µM in assay [7]; over 100 µM in assay [8]; over 100 µM in assay [9]; > 43.7 µM and 45.1 µM and 77.2 µM in [10]. Besides, the GI50 in assay [3] was 7.16 µM and 4.36 µM and 1.04 µM; in assay [4] it was 1.9 µM and 2.05 µM and 0.69 µM; in assay [5], 3.4 µM and 2.76 µM and 1.68 µM; in assay [6], 4.97 µM and 3.89 µM and 2 µM; in [7], 10.8 µM and 4.76 µM and 2.32 µM; in [8] it was 2.93 µM and 1.45 µM and 1.46 µM. Further, the GI50 in assay [9] is 47.5 µM and 15.6 µM and 15.3 µM.
Regarding `CCN(CC)CCCNc1c2cc(OC)ccc2nc2cccc([N+](=O)[O-])c12`, the TGI in [1] is 0.426 µM; in assay [2], 0.347 µM; in assay [3] it was 0.196 µM; in [4], 0.22 µM; in assay [5], 1.51 µM; in assay [6], 0.176 µM. Besides, the TGI in [7] stood at 0.264 µM; in assay [8], 0.339 µM; in assay [9] it was 0.569 µM; in assay [10] it was 0.174 µM.

The record behind these values is PubChem BioAssay (NCI).
